The term inhibition denotes the relative decrease from the control value, in per cent.

The values below come from article PMC5448350, “2-Pentadecyl-2-Oxazoline, the Oxazoline of Pea, Modulates Carrageenan-Induced Acute Inflammation” (Frontiers in Pharmacology, 2017).

The assay concerns the target T1, N-acylethanolamine-hydrolyzing acid amidase (NAAA) (Homo sapiens, UniProt Q02083).
T1 construct: human recombinant NAAA stably expressed in HEK-293 cells (12000 × g membrane fraction)
T1 sequence (Q02083 29-125): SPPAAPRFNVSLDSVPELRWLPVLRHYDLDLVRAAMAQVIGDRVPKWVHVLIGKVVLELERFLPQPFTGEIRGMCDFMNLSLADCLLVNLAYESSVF
T1 sequence (Q02083 126-359): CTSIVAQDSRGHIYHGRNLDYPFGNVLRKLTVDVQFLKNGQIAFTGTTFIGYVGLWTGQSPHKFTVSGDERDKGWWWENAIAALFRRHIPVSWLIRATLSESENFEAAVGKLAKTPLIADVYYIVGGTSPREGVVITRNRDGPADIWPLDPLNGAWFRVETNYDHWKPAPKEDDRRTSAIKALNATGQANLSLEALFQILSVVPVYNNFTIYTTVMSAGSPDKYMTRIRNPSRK
Nature of the assay: [3H]-PEA hydrolysis assay in membranes of HEK-293 cells overexpressing human NAAA, pH […]. Type of assay: cell-based. As to conditions: HEK293.

In the case of `CCCCCCCCCCCCCCCC1=NCCO1` [PEA-OXA, 2-Pentadecyl-2-oxazoline], the inhibition at 50 µM was 75%.
